Results reported in US11180474B2 (BRISTOL-MYERS SQUIBB COMPANY, priority 2016, dated 2021).
pIC50: −log10 of the molar value.

molecular target: T1, human TLR7 (Homo sapiens, UniProt Q9NYK1); assay: TLR7 inhibition reporter assay (HEK-Blue cells, SEAP reporter, gardiquimod stimulation); type: cell-based; conditions: HEK-Blue cells overexpressing human TLR7, gardiquimod 7.5 μM
T1 construct: host or cells: HEK-Blue cells
T1 sequence (Q9NYK1 27-1049): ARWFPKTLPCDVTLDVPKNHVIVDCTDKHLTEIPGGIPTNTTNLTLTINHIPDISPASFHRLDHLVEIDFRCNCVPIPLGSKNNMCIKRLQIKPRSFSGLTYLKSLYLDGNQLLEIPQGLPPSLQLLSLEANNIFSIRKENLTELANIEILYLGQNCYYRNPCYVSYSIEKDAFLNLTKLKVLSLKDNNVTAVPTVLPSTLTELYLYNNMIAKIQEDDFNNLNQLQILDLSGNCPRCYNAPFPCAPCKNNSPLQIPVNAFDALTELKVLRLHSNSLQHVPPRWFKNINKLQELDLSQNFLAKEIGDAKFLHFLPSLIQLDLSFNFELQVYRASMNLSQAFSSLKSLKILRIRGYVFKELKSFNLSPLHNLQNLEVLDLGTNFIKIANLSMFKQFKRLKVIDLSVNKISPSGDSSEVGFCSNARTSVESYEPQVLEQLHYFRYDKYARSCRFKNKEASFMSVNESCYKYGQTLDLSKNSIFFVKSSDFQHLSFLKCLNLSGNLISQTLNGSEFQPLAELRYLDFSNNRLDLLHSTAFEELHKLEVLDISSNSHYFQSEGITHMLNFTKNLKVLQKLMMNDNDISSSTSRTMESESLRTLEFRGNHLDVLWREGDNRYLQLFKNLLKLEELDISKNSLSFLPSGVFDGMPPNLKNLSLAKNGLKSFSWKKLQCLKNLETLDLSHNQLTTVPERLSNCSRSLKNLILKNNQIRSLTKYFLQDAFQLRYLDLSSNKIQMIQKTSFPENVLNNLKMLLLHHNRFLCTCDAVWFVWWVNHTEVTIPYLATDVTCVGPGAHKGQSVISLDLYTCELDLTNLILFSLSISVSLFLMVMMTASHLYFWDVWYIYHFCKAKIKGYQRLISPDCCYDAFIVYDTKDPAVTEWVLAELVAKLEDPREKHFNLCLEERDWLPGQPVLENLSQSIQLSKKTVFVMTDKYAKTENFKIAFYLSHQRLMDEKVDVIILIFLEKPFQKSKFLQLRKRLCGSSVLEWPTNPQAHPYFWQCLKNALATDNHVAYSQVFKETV
In short: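 Cells (15000/well for TLR7, 20,000 for TLR8) were treated with compounds over 0.05 nM-50 μM final. After 22 h at 37° C, 5% CO2, SEAP was measured with HEK-Blue Detection reagent; percent inhibition was taken as reduction of agonist-plus-DMSO signal relative to a known inhibitor.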

| pIC50 | SMILES |
| --- | --- |
| 6.58 | COc1ccc(-c2[nH]c3ccc(C4CCN(C5CCN(CC6CCCCC6)CC5)CC4)cc3c2C)cc1OC [Example 58, 5-(1′-(cyclohexylmethyl)-[1,4′-bipiperidin]-4-yl)-2-(3,4-dimethoxyphenyl)-3-methyl-1H-indole] |
| 6.64 | COc1ccc(-c2[nH]c3ccc(C4CCN(C5CCN(CC(O)CO)CC5)CC4)cc3c2C)cc1OC (stereo not drawn) [Example 52, 3-(4-(2-(3,4-dimethoxyphenyl)-3-methyl-1H-indol-5-yl)-[1,4′-bipiperidin]-1′-yl)propane-1,2-diol] |
| 5.99 | COc1ccc(-c2[nH]c3ccc(C4CCN(C(=O)CN5CCN(C)CC5)CC4)cc3c2C)cc1OC [Example 409, 1-(4-(2-(3,4-dimethoxyphenyl)-3-methyl-1H-indol-5-yl)piperidin-1-yl)-2-(4-methylpiperazin-1-yl)ethan-1-one] |
| 6.62 | COc1ccc(-c2[nH]c3ccc(C4CCN(C5CCN(CC(C)(C)CO)CC5)CC4)cc3c2C)cc1OC [Example 69, 3-(4-(2-(3,4-dimethoxyphenyl)-3-methyl-1H-indol-5-yl)-[1,4′-bipiperidin]-1′-yl)-2,2-dimethylpropan-1-ol] |
| 5.75 | COc1ccc(-c2[nH]c3ccc(C4CCN(C5CCCN(CC6CC6)CC5)CC4)cc3c2C)cc1OC (stereo not drawn) [Example 94, 5-(1-(1-(cyclopropylmethyl)azepan-4-yl)piperidin-4-yl)-2-(3,4-dimethoxyphenyl)-3-methyl-1H-indole] |
| 6.83 | COc1ccc(-c2[nH]c3ccc(C4CCN(C5CCN(Cc6ccco6)CC5)CC4)cc3c2C)cc1OC [Example 76, 2-(3,4-dimethoxyphenyl)-5-(1′-(furan-2-ylmethyl)-[1,4′-bipiperidin]-4-yl)-3-methyl-1H-indole] |
| 7.07 | CCCCCN1CCC(N2CCC(c3ccc4[nH]c(-c5ccc(OC)c(OC)c5)c(C)c4c3)CC2)CC1 [Example 55, 2-(3,4-dimethoxyphenyl)-3-methyl-5-(1′-pentyl-[1,4′-bipiperidin]-4-yl)-1H-indole] |
| 5.93 | COc1ccc(-c2[nH]c3ccc(C4CCN(C(=O)CNCCC(C)O)CC4)cc3c2C)cc1OC (stereo not drawn) [Example 406, 1-(4-(2-(3,4-dimethoxyphenyl)-3-methyl-1H-indol-5-yl)piperidin-1-yl)-2-((3-hydroxybutyl)amino)ethan-1-one] |
| 5.41 | COc1ccc(-c2[nH]c3ccc(C4CCN(C(=O)CN5CCCN(C)CC5)CC4)cc3c2C)cc1OC [Example 410, 1-(4-(2-(3,4-dimethoxyphenyl)-3-methyl-1H-indol-5-yl)piperidin-1-yl)-2-(4-methyl-1,4-diazepan-1-yl)ethan-1-one] |
| 6.08 | COc1ccc(-c2[nH]c3ccc(C4CCN(C5CCCN(C)CC5)CC4)cc3c2C)cc1OC (stereo not drawn) [Example 91, 2-(3,4-dimethoxyphenyl)-3-methyl-5-(1-(1-methylazepan-4-yl)piperidin-4-yl)-1H-indole] |
| 6.25 | COc1ccc(-c2[nH]c3ccc(C4CCN(C5CC(C)(C)NC(C)(C)C5)CC4)cc3c2C)cc1OC [Example 48, 2-(3,4-dimethoxyphenyl)-3-methyl-5-(2′,2′,6′,6′-tetramethyl-[1,4′-bipiperidin]-4-yl)-1H-indole] |
| 6.33 | CCN1CCC(N2CCC(c3ccc4[nH]c(-c5ccc(OC)c(OC)c5)c(C)c4c3)CC2)CC1 [Example 44, 2-(3,4-dimethoxyphenyl)-5-(1′-ethyl-[1,4′-bipiperidin]-4-yl)-3-methyl-1H-indole] |
| 6.47 | COc1ccc(-c2[nH]c3ccc(C4CCN(C5CCN(CC6CC6)CC5)CC4)cc3c2C)cc1OC [Example 3, 5-(1′-(cyclopropylmethyl)-[1,4′-bipiperidin]-4-yl)-2-(3,4-dimethoxyphenyl)-3-methyl-1H-indole] |
| 6.31 | COc1ccc(-c2[nH]c3ccc(C4CCN(C5CCN(C6CCC(O)CC6)CC5)CC4)cc3c2C)cc1OC (stereo not drawn) [Example 84, 4-(4-(2-(3,4-dimethoxyphenyl)-3-methyl-1H-indol-5-yl)-[1,4′-bipiperidin]-1′-yl)cyclohexan-1-ol] |
| 4.91 | COc1ccc(-c2[nH]c3ccc(C4CCN(C(=O)CN5CCC(N(C)C)CC5)CC4)cc3c2C)cc1OC [Example 407, 1-(4-(2-(3,4-dimethoxyphenyl)-3-methyl-1H-indol-5-yl)piperidin-1-yl)-2-(4-(dimethylamino)piperidin-1-yl)ethan-1-one] |
| 7.20 | C#CCCCCC(=O)NCCN1CCC(c2ccc3[nH]c(-c4ccc(OC)c(OC)c4)c(C(C)C)c3c2)CC1 [Example 411, N-(2-(4-(2-(3,4-dimethoxyphenyl)-3-isopropyl-1H-indol-5-yl)piperidin-1-yl)ethyl)hept-6-ynamide] |
| 6.65 | COc1ccc(-c2[nH]c3ccc(C4CCN(C5CCN(Cc6cccn6C)CC5)CC4)cc3c2C)cc1OC [Example 78, 2-(3,4-dimethoxyphenyl)-3-methyl-5-(1′-((1-methyl-1H-pyrrol-2-yl)methyl)-[1,4′-bipiperidin]-4-yl)-1H-indole] |
| 5.87 | COc1ccc(-c2[nH]c3ccc(C4CCN(CC5CCCCN5C)CC4)cc3c2C)cc1OC (stereo not drawn) [Example 49, 2-(3,4-dimethoxyphenyl)-3-methyl-5-(1-((1-methylpiperidin-2-yl)methyl)piperidin-4-yl)-1H-indole] |
| 5.94 | COc1ccc(-c2[nH]c3ccc(C4CCN(C(C)CO)CC4)cc3c2C)cc1OC (stereo not drawn) [Example 43, 2-(4-(2-(3,4-dimethoxyphenyl)-3-methyl-1H-indol-5-yl)piperidin-1-yl)propan-1-ol] |
| 7.24 | CNCC(=O)N1CCC(c2ccc3[nH]c(-c4ccc(OC)c(OC)c4)c(CC(F)(F)F)c3c2)CC1 [Example 414, 1-(4-(2-(3,4-dimethoxyphenyl)-3-(2,2,2-trifluoroethyl)-1H-indol-5-yl)piperidin-1-yl)-2-(methylamino)ethanone] |
| 7.51 | COc1ccc(-c2[nH]c3ccc(C4CCN(C(=O)CN5CCCC(C(=O)N(C)C)C5)CC4)cc3c2CC(F)(F)F)cc1OC (stereo not drawn) [Example 419, 1-(2-(4-(2-(3,4-dimethoxyphenyl)-3-(2,2,2-trifluoroethyl)-1H-indol-5-yl)piperidin-1-yl)-2-oxoethyl)-N,N-dimethylpiperidine-3-carboxamide] |
| 6.25 | COc1ccc(-c2[nH]c3ccc(C4CCN(C5CCN(Cc6nccs6)CC5)CC4)cc3c2C)cc1OC [Example 72, 2-((4-(2-(3,4-dimethoxyphenyl)-3-methyl-1H-indol-5-yl)-[1,4′-bipiperidin]-1′-yl)methyl)thiazole] |
| 4.62 | COc1ccc(-c2[nH]c3ccc(C4CCN(C5CCN(CC6CCCC6)CC5)CC4)cc3c2C)cc1OC [Example 65, 5-(1′-(cyclopentylmethyl)-[1,4′-bipiperidin]-4-yl)-2-(3,4-dimethoxyphenyl)-3-methyl-1H-indole] |
| 5.96 | COc1ccc(-c2[nH]c3ccc(C4CCN(C5CCN(CC6CCOC6)CC5)CC4)cc3c2C)cc1OC (stereo not drawn) [Example 74] |
| 7.10 | CCN(CC)C(=O)C1CCCN(CC(=O)N2CCC(c3ccc4[nH]c(-c5ccc(OC)c(OC)c5)c(CC(F)(F)F)c4c3)CC2)C1 (stereo not drawn) [Example 418, 1-(2-(4-(2-(3,4-dimethoxyphenyl)-3-(2,2,2-trifluoroethyl)-1H-indol-5-yl)piperidin-1-yl)-2-oxoethyl)-N,N-diethylpiperidine-3-carboxamide] |
| 6.04 | COc1ccc(-c2[nH]c3ccc(C4CCN(C5CCCN(C6CCCC6)CC5)CC4)cc3c2C)cc1OC (stereo not drawn) [Example 93, 5-(1-(1-cyclopentylazepan-4-yl)piperidin-4-yl)-2-(3,4-dimethoxyphenyl)-3-methyl-1H-indole] |
| 6.36 | COc1ccc(-c2[nH]c3ccc(C4CCN(C5CCN(C6CCC(C)CC6)CC5)CC4)cc3c2C)cc1OC (stereo not drawn) [Example 80, 2-(3,4-dimethoxyphenyl)-3-methyl-5-(1′-(4-methylcyclohexyl)-[1,4′-bipiperidin]-4-yl)-1H-indole] |
